Reference: publication PMC4594923, “Food Polyphenols Fail to Cause a Biologically Relevant Reduction of COX-2 Activity” (PLoS ONE, 2015)
Marks after values point to notes of the source that are not given here.

Columns and labels:
[1] = tested on: arachidonic acid (AA) cascade; experiment: liver tissue oxylipin/PG levels in LPS induced sepsis in mice; format: in vivo, C57BL/6N mice; settings: liver tissue 24 h after LPS treatment;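 note: male C57BL/6N mice pretreated i.p. with polyphenols at 100 mg/kg bw or vehicle before LPS, liver oxylipins measured by LC-MS after solid-phase extraction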
Excerpt: Twelve week old male C57BL/6N mice (Charles River, Sulzfeld, Germany) were used for all experiments. C57BL/6 male mice (H2^b, 11–13 weeks of age) were obtained from Charles River (Sulzfeld, Germany). Animals were cared for in accordance with the institution’s guidelines for experimental animals and with the guidelines of the American Physiological Society. […] Mice were monitored closely and if they appeared compromised (i.e. inactivity, no intake of food or water) after compound or LPS injection the experiment was terminated.
Oxylipin levels were analyzed in plasma and tissues by LC-MS following SPE extraction of 200 μl plasma or tissue homogenate (50 mg) on Chromabond C18 ec cartridges (Machery-Nagel, Düren, Germany) [19].
GraphPad Prism 5.0 (GraphPad Software, San Diego, USA) was used for data analysis, the fitting of dose response curves and calculation of the IC50 values. Statistical differences were determined by Dunnetts test (LPS vs. other groups).

[2] = tested on: arachidonic acid (AA) cascade; experiment: kidney tissue oxylipin/PG levels in LPS induced sepsis in mice; settings: kidney tissue 24 h after LPS treatment, LPS +, mean;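 note: male C57BL/6N mice challenged with LPS, kidney taken 24 h later, oxylipins quantified by LC-MS after solid-phase extraction of tissue homogenate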

Compound: O=c1c(-c2ccc(O)cc2)coc2cc(O)cc(O)c12 [Genistein, genistein]
- 4,5-DiHDPE concentration ([1]; mean): 64 nM
- 4-HDHA concentration ([1]; mean): 14 nM
- 5(6)-EpETrE concentration ([1]; mean): 90 nM
- 5,6-DiHETE concentration ([1]; mean): < 0.30 nM
- 5,6-DiHETrE concentration ([1]; mean): 6.3 nM
- 5-HEPE concentration ([1]; mean): 2.7 nM
- 5-HETE concentration ([1]; mean): 2.7 nM
- 5-iPF2α concentration ([1]; mean): < 1.0 nM
- 5-oxo-ETE concentration ([1]; mean): 19 nM
- 6-keto-PGF1α concentration ([1]; mean): 74 nM
- 7,8-DiHDPE concentration ([1]; mean): 6.3 nM
- 7-HDHA concentration ([1]; mean): 4.4 nM
- 8(9)-EpETE concentration ([1]; mean): 2.5 nM
- 8(9)-EpETrE concentration ([1]; mean): 20 nM
- 8,9-DiHETE concentration ([1]; mean): 2.6 nM
- 8,9-DiHETrE concentration ([1]; mean): 12 nM
- 8,15-DiHETE concentration ([1]; mean): 0.88 nM
- 8-HDHA concentration ([1]; mean): 25^* nM
- 8-HEPE concentration ([1]; mean): 1.2 nM
- 8-HETE concentration ([1]; mean): 10 nM
- 8-iPF2α concentration ([1]; mean): 3.0^* nM
- 9(10)-EpODE concentration ([1]; mean): 12 nM
- 9(10)-EpOME concentration ([1]; mean): 130 nM
- 9(10)-Epoxystearic acid concentration ([1]; mean): 82 nM
- 9,10,13-TriHOME concentration ([1]; mean): 8.6^* nM
- 9,10-DiHODE concentration ([1]; mean): 7.6 nM
- 9,10-DiHOME concentration ([1]; mean): 82 nM
- 9,10-Dihydroxystearic acid concentration ([1]; mean): 64 nM
- 9,12,13-TriHOME concentration ([1]; mean): 64 nM
- 9-HETE concentration ([1]; mean): 6.2 nM
- 9-HODE concentration ([1]; mean): 550 nM
- 9-HOTrE concentration ([1]; mean): 9.9 nM
- 9-oxo-ODE concentration ([1]; mean): 160 nM
- 10(11)-EpDPE concentration ([1]; mean): 33^* nM
- 10,11-DiHDPE concentration ([1]; mean): 11 nM
- 10-HDHA concentration ([1]; mean): 7.6 nM
- 11(12)-EpETE concentration ([1]; mean): 5.1^† nM
- 11(12)-EpETrE concentration ([1]; mean): 51 nM
- 11,12-DiHETE concentration ([1]; mean): 2.9 nM
- 11,12-DiHETrE concentration ([1]; mean): 22 nM
- 11-HDHA concentration ([1]; mean): 7.0 nM
- 11-HETE concentration ([1]; mean): 35 nM
- 12(13)-EpODE concentration ([1]; mean): 5.7 nM
- 12(13)-EpOME concentration ([1]; mean): 110 nM
- 12,13-DiHODE concentration ([1]; mean): 5.7 nM
- 12,13-DiHOME concentration ([1]; mean): 210 nM
- 12-HEPE concentration ([1]; mean): 39 nM
- 12-HETE concentration ([1]; mean): 150 nM
- 13(14)-EpDPE concentration ([1]; mean): 27^* nM
- 13,14-DiHDPE concentration ([1]; mean): 15 nM
- 13,14-dihydro-15-keto-PGE1 concentration ([1]; mean): 0.61 nM
- 13,14-dihydro-15-keto-PGF2α concentration ([1]; mean): 8.2^* nM
- 13-HDHA concentration ([1]; mean): 16^† nM
- 13-HODE concentration ([1]; mean): 530 nM
- 13-HOTrE concentration ([1]; mean): 18 nM
- 13-oxo-ODE concentration ([1]; mean): 20 nM
- 14(15)-EpETE concentration ([1]; mean): 3.3 nM
- 14(15)-EpETrE concentration ([1]; mean): 44^* nM
- 14,15-DiHETE concentration ([1]; mean): 8.6 nM
- 14,15-DiHETrE concentration ([1]; mean): 62 nM
- 14-HDHA concentration ([1]; mean): 97 nM
- 15(16)-EpODE concentration ([1]; mean): 27 nM
- 15(S)-HETrE concentration ([1]; mean): 14 nM
- 15,16-DiHODE concentration ([1]; mean): 63 nM
- 15-HEPE concentration ([1]; mean): 4.0 nM
- 15-HETE concentration ([1]; mean): 40 nM
- 15-oxo-ETE concentration ([1]; mean): 5.8 nM
- 16(17)-EpDPE concentration ([1]; mean): 27^* nM
- 16,17-DiHDPE concentration ([1]; mean): 35 nM
- 16-HDHA concentration ([1]; mean): 8.1^* nM
- 17(18)-EpETE concentration ([1]; mean): 4.6 nM
- 17,18-DiHETE concentration ([1]; mean): 19 nM
- 17-HDHA concentration ([1]; mean): 25 nM
- 18-HEPE concentration ([1]; mean): 4.6 nM
- 19(20)-EpDPE concentration ([1]; mean): 40^* nM
- 19,20-DiHDPE concentration ([1]; mean): 170 nM
- 20-HDHA concentration ([1]; mean): 27^* nM
- 20-HEPE concentration ([1]; mean): 22 nM
- 20-HETE concentration ([1]; mean): 6.3 nM
- EKODE concentration ([1]; mean): 40 nM
- PGD1 concentration ([1]; mean): 2.3 nM
- PGD2 concentration ([1]; mean): 42 nM
- PGE1 concentration ([1]; mean): 3.7 nM
- PGE2 concentration ([1]; mean): 21 nM
- PGF1α concentration ([1]; mean): 6.9 nM
- TXB2 concentration ([1]; mean): 31 nM
- TxB3 concentration ([1]; mean): 1.2 nM
- dihomo-PGF2α concentration ([1]; mean): 5.3 nM
- PGF2α concentration ([1]; mean (first listing, r6)): 57 nM
- PGF2α concentration ([1]; mean (second listing, r9)): 57 nM
- 1a,1b-dihomo-PGF2α [2]: 1.9 nM
- 4,5-DiHDPE [2]: 15 nM
- 4-HDHA [2]: 28^† nM
- 5(6)-EpETrE [2]: 140^† nM
- 5,6-DiHETrE [2]: 1.8^† nM
- 5-HEPE [2]: 1.3 nM
- 5-HETE [2]: 15^† nM
- 5-oxo-ETE [2]: 45 nM
- 6-keto-PGF1α [2]: 61 nM
- 7,8-DiHDPE [2]: 2.0^* nM
- 7-HDHA [2]: 4.0^* nM
- 8(9)-EpETrE [2]: 34^‡ nM
- 8,9-DiHETrE [2]: 1.9 nM
- 8-HDHA [2]: 23^‡ nM
- 8-HETE [2]: 4.9 nM
- 8-iPF2a [2]: 2.0 nM
- 9(10)-EpODE [2]: 14 nM
- 9(10)-EpOME [2]: 170^* nM
- 9(10)-Epoxystearic acid [2]: 75^* nM
- 9,10,13-TriHOME [2]: 4.3 nM
- 9,10-DiHODE [2]: 1.6 nM
- 9,10-DiHOME [2]: 31 nM
- 9,10-Dihydroxystearic acid [2]: 50 nM
- 9,12,13-TriHOME [2]: 24 nM
- 9-HETE [2]: 4.3^† nM
- 9-HODE [2]: 280 nM
- 9-HOTrE [2]: 5.0 nM
- 9-oxo-ODE [2]: 65 nM
- 10(11)-EpDPE [2]: 71^† nM
- 10,11-DiHDPE [2]: 2.4 nM
- 10-HDHA [2]: 4.3 nM
- 11(12)-EpETE [2]: 4.0 nM
- 11(12)-EpETrE [2]: 82^† nM
- 11,12-DiHETrE [2]: 2.8 nM
- 11-HDHA [2]: 7.7^† nM
- 11-HETE [2]: 18 nM
- 12(13)-EpODE [2]: 8.1^* nM
- 12(13)-EpOME [2]: 120^* nM
- 12,13-DiHOME [2]: 78 nM
- 12-HEPE [2]: 2.2 nM
- 12-HETE [2]: 21 nM
- 13(14)-EpDPE [2]: 56^† nM
- 13,14-DiHDPE [2]: 5.0 nM
- 13,14-dihydro-15-keto-PGF2α [2]: 3.1 nM
- 13-HDHA [2]: 9.1^* nM
- 13-HODE [2]: 230 nM
- 13-HOTrE [2]: 6.0 nM
- 13-oxo-ODE [2]: 11 nM
- 14(15)-EpETE [2]: 4.7^† nM
- 14(15)-EpETrE [2]: 57^* nM
- 14,15-DiHETE [2]: 1.1 nM
- 14,15-DiHETrE [2]: 8.5 nM
- 14-HDHA [2]: 14 nM
- 15(16)-EpODE [2]: 56^† nM
- 15(S)-HETrE [2]: 6.4 nM
- 15,16-DiHODE [2]: 26 nM
- 15-HETE [2]: 31^* nM
- 15-oxo-ETE [2]: 12^* nM
- 16(17)-EpDPE [2]: 52^† nM
- 16,17-DiHDPE [2]: 15 nM
- 16-HDHA [2]: 9.1 nM
- 17(18)-EpETE [2]: 5.7^† nM
- 17,18-DiHETE [2]: 4.4 nM
- 17-HDHA [2]: 22 nM
- 18-HEPE [2]: 2.0^* nM
- 19(20)-EpDPE [2]: 88^† nM
- 19,20-DiHDPE [2]: 100 nM
- 20-HDHA [2]: 25^* nM
- 20-HEPE [2]: 5.9 nM
- EKODE [2]: 58 nM
- PGD2 [2]: 9.6 nM
- PGE1 [2]: 6.3 nM
- PGE2 [2]: 110 nM
- PGF1α [2]: 3.7 nM
- PGF2α [2]: 40 nM
- TXB2 [2]: 3.2^* nM
- 5,6-DiHETE ([2]; < = below LOQ): < 0.25 nM
- 5-iPF2α ([2]; < = below LOQ): < 1.0 nM
- 8(9)-EpETE ([2]; < = below LOQ): 2.8^† nM
- 12,13-DiHODE ([2]; < = below LOQ): < 2.0 nM
- 13,14-dihydro-15-keto-PGE1 ([2]; < = below LOQ): 0.5 nM
- 20-HETE ([2]; < = below LOQ): < 2.7 nM
- PGD1 ([2]; < = below LOQ): < 0.50 nM
- PGF2α ([2]; second listing of PGF2α (r9)): 40 nM
